Common to all, as to test: biochemical
Assay [1] concerns the target T1, recombinant wildtype and mutated PPO (Amaranthus PPO2: PPX2L_WC SEQ ID NO 2, PPX2L_AC SEQ ID NO 4, dG210 SEQ ID NO 6 & 8) (Amaranthus tuberculatus, UniProt Q0NZW9, D133A/F420I/R128I).
T1 sequence (Q0NZW9 1-534 R128I/D133A/F420I): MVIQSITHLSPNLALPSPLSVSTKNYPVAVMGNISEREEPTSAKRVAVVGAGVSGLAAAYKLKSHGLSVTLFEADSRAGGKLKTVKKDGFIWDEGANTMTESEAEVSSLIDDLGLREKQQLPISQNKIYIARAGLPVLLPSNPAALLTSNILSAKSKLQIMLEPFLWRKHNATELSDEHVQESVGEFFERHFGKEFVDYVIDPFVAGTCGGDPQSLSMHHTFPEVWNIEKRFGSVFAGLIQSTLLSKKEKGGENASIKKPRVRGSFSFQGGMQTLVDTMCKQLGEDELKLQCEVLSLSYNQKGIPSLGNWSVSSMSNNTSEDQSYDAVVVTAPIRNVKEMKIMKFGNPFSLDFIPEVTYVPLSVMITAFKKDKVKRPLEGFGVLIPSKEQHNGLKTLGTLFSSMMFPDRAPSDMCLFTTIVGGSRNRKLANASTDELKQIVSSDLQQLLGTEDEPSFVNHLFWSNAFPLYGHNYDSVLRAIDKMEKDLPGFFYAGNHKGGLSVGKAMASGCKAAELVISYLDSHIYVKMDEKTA
Particulars: IC50 (M).

Assay [2] has as its target recombinant wildtype and mutated PPO (Amaranthus PPO2: PPX2L_WC SEQ ID NO 2, PPX2L_AC SEQ ID NO 4, dG210 SEQ ID NO 6 & 8) (Amaranthus tuberculatus, UniProt Q0NZW9, D133A/F420L/R128H). The settings on record: IC50 (M).
The target of assay [3] is recombinant wildtype and mutated PPO (Amaranthus PPO2: PPX2L_WC SEQ ID NO 2, PPX2L_AC SEQ ID NO 4, dG210 SEQ ID NO 6 & 8) (Amaranthus tuberculatus, UniProt Q0NZW9, D133A/F420M/R128S). The settings on record: IC50 (M).
Sequence of recombinant wildtype and mutated PPO (Amaranthus PPO2: PPX2L_WC SEQ ID NO 2, PPX2L_AC SEQ ID NO 4, dG210 SEQ ID NO 6 & 8) (Amaranthus tuberculatus, UniProt Q0NZW9, D133A/F420M/R128S) (Q0NZW9 1-534 R128S/D133A/F420M): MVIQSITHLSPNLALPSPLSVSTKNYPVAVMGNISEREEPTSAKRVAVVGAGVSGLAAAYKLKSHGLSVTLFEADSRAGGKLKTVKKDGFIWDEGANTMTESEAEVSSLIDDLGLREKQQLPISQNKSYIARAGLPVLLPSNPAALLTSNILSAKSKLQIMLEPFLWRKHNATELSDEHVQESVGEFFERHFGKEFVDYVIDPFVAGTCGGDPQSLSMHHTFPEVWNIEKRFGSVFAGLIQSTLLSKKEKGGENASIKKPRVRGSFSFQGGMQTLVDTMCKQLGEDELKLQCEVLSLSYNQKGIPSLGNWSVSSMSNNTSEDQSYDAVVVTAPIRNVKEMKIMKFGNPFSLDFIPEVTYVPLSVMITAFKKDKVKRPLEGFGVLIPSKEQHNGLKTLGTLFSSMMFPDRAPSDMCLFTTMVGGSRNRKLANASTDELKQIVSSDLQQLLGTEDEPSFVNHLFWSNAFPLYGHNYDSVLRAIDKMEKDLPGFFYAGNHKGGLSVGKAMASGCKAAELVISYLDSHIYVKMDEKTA
The target in assay [4] is recombinant wildtype and mutated PPO (Amaranthus PPO2: PPX2L_WC SEQ ID NO 2, PPX2L_AC SEQ ID NO 4, dG210 SEQ ID NO 6 & 8) (Amaranthus tuberculatus, UniProt Q0NZW9, D133A/F420V/R128H). The settings on record: IC50 (M).
Sequence of recombinant wildtype and mutated PPO (Amaranthus PPO2: PPX2L_WC SEQ ID NO 2, PPX2L_AC SEQ ID NO 4, dG210 SEQ ID NO 6 & 8) (Amaranthus tuberculatus, UniProt Q0NZW9, D133A/F420V/R128H) (Q0NZW9 1-534 R128H/D133A/F420V): as the sequence (Q0NZW9 1-534 R128S/D133A/F420M) above, with S128H, M420V counted along it
Assay [5] concerns recombinant wildtype and mutated PPO (Amaranthus PPO2: PPX2L_WC SEQ ID NO 2, PPX2L_AC SEQ ID NO 4, dG210 SEQ ID NO 6 & 8). Also on record: species or system Amaranthus tuberculatus.
In assay [6] the target is T2, recombinant wildtype and mutated PPO (Amaranthus PPO2: PPX2L_WC SEQ ID NO 2, PPX2L_AC SEQ ID NO 4, dG210 SEQ ID NO 6 & 8) (Amaranthus tuberculatus, UniProt Q0NZW9).
T2 sequence (Q0NZW9 1-534): T1 sequence (Q0NZW9 1-534 R128I/D133A/F420I) with I128R, A133D, I420F

For assay [7], the target named is T3, recombinant wildtype and mutated PPO (Amaranthus PPO2: PPX2L_WC SEQ ID NO 2, PPX2L_AC SEQ ID NO 4, dG210 SEQ ID NO 6 & 8) (Amaranthus tuberculatus, UniProt Q0NZW9, R128A/F420M, form not given).
T3 sequence (Q0NZW9 1-534 R128A/F420M): T1 sequence (Q0NZW9 1-534 R128I/D133A/F420I) with I128A, A133D, I420M

Assay [8] deals with recombinant wildtype and mutated PPO (Amaranthus PPO2: PPX2L_WC SEQ ID NO 2, PPX2L_AC SEQ ID NO 4, dG210 SEQ ID NO 6 & 8) (Amaranthus tuberculatus, UniProt Q0NZW9, R128A/F420V, form not given).
Sequence of recombinant wildtype and mutated PPO (Amaranthus PPO2: PPX2L_WC SEQ ID NO 2, PPX2L_AC SEQ ID NO 4, dG210 SEQ ID NO 6 & 8) (Amaranthus tuberculatus, UniProt Q0NZW9, R128A/F420V, form not given) (Q0NZW9 1-534 R128A/F420V, form open): as the sequence (Q0NZW9 1-534 R128S/D133A/F420M) above, with S128A, A133D, M420V counted along it

Usually IC50 stands for the concentration needed to halve the response being measured.

Substitutions are numbered along the chain they refer to. Values joined by “and” are separate entries in the source; they are usually repeats but may differ in a detail not shown here. Equal values may be shown once.

Sequence of recombinant wildtype and mutated PPO (Amaranthus PPO2: PPX2L_WC SEQ ID NO 2, PPX2L_AC SEQ ID NO 4, dG210 SEQ ID NO 6 & 8) (Amaranthus tuberculatus, UniProt Q0NZW9, D133A/F420L/R128H) (Q0NZW9 1-534 R128H/D133A/F420L): as the sequence (Q0NZW9 1-534 R128S/D133A/F420M) above, with S128H, M420L counted along it

Consider `C#CCN1C(=O)C(F)(F)Oc2cc(F)c(-n3c(=O)n(C)c(=S)n(C)c3=O)cc21`, for which the IC50 in assay [1] was 1.38e-07 M; in assay [2] it was 7.98e-08 M; in assay [3], 2.4e-08 M; in assay [4], 7.63e-08 M.
Regarding `O=C(O)c1cc(Oc2ccc(C(F)(F)F)cc2Cl)ccc1[N+](=O)[O-]` [ACIFLUORFEN], the “inhibition (%) at 1 × 10−5M” value in assay [5] is 39% and 33% and 27%.
Consider `COC(Oc1ccccc1Oc1cc(-n2c(=O)cc(C(F)(F)F)n(C)c2=O)c(F)cc1Cl)C(=O)OC1CCCCC1` (stereo not shown), for which the IC50 in assay [1] worked out at 1.82e-06 M; in assay [2] it was 6.93e-07 M; in assay [3] it was 5.24e-08 M; in assay [4] it was 9.06e-08 M.
For the molecule `C#CCN1C(=O)C(F)(F)Oc2cc(F)c(N3C(=O)C4=C(CCCC4)C3=O)cc21`, the IC50 turned out to be 0.146 nM in assay [6], 641 nM in assay [7] and 274 nM in assay [8].
`COC(=O)C(OC)Oc1ccccc1Oc1cc(-n2c(=O)cc(C(F)(F)F)n(C)c2=O)c(F)cc1Cl` (stereo not shown): the half-maximal inhibitory concentration (IC50) was determined as 0.411 nM in assay [6]; 2.27e-08 M in assay [1]; 4.47e-08 M in assay [2]; 3.62e-08 M in assay [3]; 6.93e-09 M in assay [4].
Consider `C#CCN1C(=O)COc2cc(F)c(N3C(=O)C4=C(CCCC4)C3=O)cc21` [Flumioxazin, flumioxazin], for which the IC50 in assay [7] turned out to be 8430 nM. Besides, the “inhibition (%) at 1 × 10−5M” value in assay [5] was 41% and 48% and 30%.
Turning to `C#CCN1C(=O)C(F)(F)Oc2cc(F)c(-n3c(=O)cc(C(F)(F)F)n(C)c3=O)cc21`, the IC50 is 0.315 nM in assay [6], 2.56 nM in assay [7] and 6.33 nM in assay [8].
